8 compounds from PubChem BioAssay (NCI) can be followed below.

Some test systems named below: UO-31 renal; PC-3 prostate; MCF7 breast; HS 578T breast; CCRF-CEM leukemia; OVCAR-3 ovarian; 786-0 renal; NCI-H522 lung; MOLT-4 leukemia; SK-MEL-28 melanoma; U251 CNS; MDA-MB-231 breast; SR leukemia; IGROV1 ovarian; OVCAR-8 ovarian; OVCAR-5 ovarian; MALME-3M melanoma; CAKI-1 renal; SF-539 CNS.
Holding throughout (assay): inhibition of tumour cell growth, NCI panel, 48 h

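Each compound was tested at five concentrations against cells in 96-well plates for 48 hours. TGI: total growth inhibition.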

In the case of `Cc1ccc(C(=C2Sc3ccccc3S2)C(=C2Sc3ccccc3S2)c2ccc(C)s2)s1`, the TGI in the experiment on UO-31 renal, in the experiment with PC-3 prostate, in the experiment on MCF7 breast, in the experiment with HS 578T breast, with CCRF-CEM leukemia and with OVCAR-3 ovarian was greater than 100 µM each time. The TGI in the experiment on 786-0 renal, in the experiment on NCI-H522 lung, in the experiment on MOLT-4 leukemia, in the experiment on SK-MEL-28 melanoma, with U251 CNS and in the experiment with MDA-MB-231 breast was greater than 100 µM throughout. Moreover, the TGI with SR leukemia was 85.7 µM; with IGROV1 ovarian, greater than 100 µM; with OVCAR-8 ovarian, greater than 100 µM; with OVCAR-5 ovarian it was greater than 100 µM; with MALME-3M melanoma, greater than 100 µM; with CAKI-1 renal, greater than 100 µM.
Regarding `Cc1cc2c3c(nc4ccccc42)C(=O)c2ccccc2-c3n1`, the TGI with UO-31 renal was greater than 100 µM; in the experiment on PC-3 prostate it was 80.9 µM; with MCF7 breast it was 51.2 µM; in the experiment with HS 578T breast, 46.7 µM; with CCRF-CEM leukemia, 73.3 µM; in the experiment with OVCAR-3 ovarian it was 0.906 µM. The TGI is greater than 100 µM in the experiment on 786-0 renal; 14.4 µM with NCI-H522 lung; 24.1 µM in the experiment on MOLT-4 leukemia; 43.3 µM in the experiment on SK-MEL-28 melanoma; greater than 100 µM in the experiment with U251 CNS; 78.1 µM in the experiment on MDA-MB-231 breast. Further, the TGI with SR leukemia was 37.2 µM; in the experiment with IGROV1 ovarian it was greater than 100 µM; in the experiment on OVCAR-8 ovarian, 34.8 µM; with SF-539 CNS, 61.2 µM; in the experiment on OVCAR-5 ovarian, greater than 100 µM; in the experiment with CAKI-1 renal, 60.7 µM.
For the compound `Cc1ccc(-c2[nH]c(=O)n(C3OC(CO)C(O)C(O)C3O)c(=O)c2C#N)cc1` (centres undefined), the TGI in the experiment with UO-31 renal, in the experiment with PC-3 prostate, with MCF7 breast, in the experiment with HS 578T breast, in the experiment with CCRF-CEM leukemia and in the experiment on OVCAR-3 ovarian was greater than 100 µM each time. Further, the TGI in the experiment on 786-0 renal, in the experiment on NCI-H522 lung, in the experiment on MOLT-4 leukemia, in the experiment with SK-MEL-28 melanoma, in the experiment with U251 CNS and in the experiment with MDA-MB-231 breast was greater than 100 µM throughout. Further, the TGI in the experiment with SR leukemia, with IGROV1 ovarian, in the experiment on OVCAR-8 ovarian, in the experiment with SF-539 CNS, in the experiment with OVCAR-5 ovarian and with CAKI-1 renal was greater than 100 µM throughout.
For the compound `O=c1c2sc(=S)n(-c3ccc(F)cc3)c2ncn1/N=C/c1ccc(F)cc1F`, the TGI in the experiment with UO-31 renal is 89.8 µM; in the experiment on PC-3 prostate it was greater than 100 µM; in the experiment with MCF7 breast, greater than 100 µM; in the experiment on HS 578T breast it was 76.3 µM; in the experiment on CCRF-CEM leukemia, greater than 100 µM; with OVCAR-3 ovarian it was 61.5 µM. Further, the TGI was 34.1 µM in the experiment with 786-0 renal; greater than 100 µM with NCI-H522 lung; greater than 100 µM with SK-MEL-28 melanoma; 52 µM with U251 CNS; 53.4 µM in the experiment on MDA-MB-231 breast; greater than 100 µM with SR leukemia. In addition, the TGI in the experiment on IGROV1 ovarian is 89.1 µM; in the experiment with OVCAR-8 ovarian, 44.9 µM; with OVCAR-5 ovarian, greater than 100 µM; in the experiment with MALME-3M melanoma, 41.6 µM; in the experiment with CAKI-1 renal it was 32.9 µM.
Turning to `CC1OC(OC2C(OC(=O)[C@]34CCC(C)(C)C[C@H]3C3=CC[C@@H]5[C@@]6(C)CC[C@H](OC7OC(C(=O)O)C(O)C(O)C7O)C(C)(C)[C@@H]6CC[C@@]5(C)[C@]3(C)C[C@H]4O)OCC(O)C2O)C(O)C(OC2OCC(O)(CO)C2O)C1OC1OCC(O)C(O)C1O` (some centres undefined), the TGI in the experiment with UO-31 renal stood at 8.42 µM; in the experiment with PC-3 prostate it was 21.3 µM; in the experiment on MCF7 breast, 18.3 µM; in the experiment on HS 578T breast, 40 µM; in the experiment with CCRF-CEM leukemia, 52.1 µM; with OVCAR-3 ovarian it was 27.4 µM. Moreover, the TGI came out at 24.7 µM with 786-0 renal; 16.5 µM in the experiment with NCI-H522 lung; 38.8 µM in the experiment on MOLT-4 leukemia; 15.2 µM in the experiment on SK-MEL-28 melanoma; 21.4 µM in the experiment with U251 CNS; 12.7 µM with MDA-MB-231 breast. Also, the TGI with SR leukemia was 18.9 µM; in the experiment with IGROV1 ovarian, 33.3 µM; in the experiment with OVCAR-8 ovarian it was 33.4 µM; with OVCAR-5 ovarian, 22.9 µM; with MALME-3M melanoma, 24.7 µM; with CAKI-1 renal, 20 µM.
For the compound `COc1ccc2c(C)cc(=O)oc2c1OC`, the TGI in the experiment on UO-31 renal, in the experiment with PC-3 prostate, with MCF7 breast, with HS 578T breast, in the experiment on CCRF-CEM leukemia and in the experiment on OVCAR-3 ovarian was greater than 100 µM throughout. Also, the TGI in the experiment with 786-0 renal, in the experiment with MOLT-4 leukemia, with SK-MEL-28 melanoma, in the experiment with U251 CNS, in the experiment on MDA-MB-231 breast and with SR leukemia was greater than 100 µM throughout. The TGI in the experiment on IGROV1 ovarian, in the experiment on OVCAR-8 ovarian, in the experiment with OVCAR-5 ovarian and with MALME-3M melanoma was greater than 100 µM in each case.
For `CCOC(=O)c1ccc(NCC#CCN2CCOCC2)cc1`, the TGI in the experiment with UO-31 renal, in the experiment with PC-3 prostate, in the experiment on MCF7 breast, in the experiment on HS 578T breast, in the experiment on CCRF-CEM leukemia and with OVCAR-3 ovarian was greater than 100 µM each time. The TGI in the experiment on 786-0 renal, in the experiment on MOLT-4 leukemia, in the experiment with SK-MEL-28 melanoma, in the experiment with U251 CNS, in the experiment with MDA-MB-231 breast and in the experiment with SR leukemia was greater than 100 µM throughout. For the same compound, the TGI with IGROV1 ovarian, in the experiment with SF-539 CNS, in the experiment on OVCAR-5 ovarian and in the experiment on MALME-3M melanoma was greater than 100 µM in each case.
`Cc1cc(C(=O)CCCCOc2ccc(C3=NCCO3)cc2)c(C)n1C`: the TGI with UO-31 renal is greater than 100 µM; in the experiment on PC-3 prostate it was 59.7 µM; with MCF7 breast, greater than 100 µM; in the experiment on HS 578T breast, greater than 100 µM; with CCRF-CEM leukemia, 46.6 µM; with OVCAR-3 ovarian, greater than 100 µM. The TGI in the experiment with 786-0 renal was greater than 100 µM; in the experiment on NCI-H522 lung, greater than 100 µM; with MOLT-4 leukemia it was 34.4 µM; in the experiment on SK-MEL-28 melanoma, 83.1 µM; in the experiment with U251 CNS, greater than 100 µM; in the experiment on MDA-MB-231 breast it was greater than 100 µM. The TGI in the experiment with SR leukemia is 54.9 µM; in the experiment with IGROV1 ovarian it was greater than 100 µM; with OVCAR-8 ovarian, greater than 100 µM; in the experiment with OVCAR-5 ovarian, greater than 100 µM; with MALME-3M melanoma, greater than 100 µM; with CAKI-1 renal, greater than 100 µM.
